From BindingDB's records for doi:10.1073/pnas.250483897 (University of Berne, 2000)
Where “and” joins values, the source holds several entries; their conditions need not be identical. Equal entries are not always repeated. Starred links: 1 amine or outer side, 2 acyl side, 3 side chain; linkers in the order of their positions; H or OH if unused. Positions of bridges follow the written chain, without caps; N, C: chain ends. Non-standard residues stand in square brackets, D forms with d. Residues, ends and D or L forms follow the SMILES beside them. *: point of attachment. pNA = O=[N+]([O-])c1ccc(N*)cc1; Nle = CCCC[CH](N)C(=O)O; CO = O=C([*:1])[*:2]

Legend:
[1] = target: Somatostatin receptor type 4 (Homo sapiens, UniProt P31391); settings: IC50 (nM)
Somatostatin receptor type 4, sequence (P31391 whole entry): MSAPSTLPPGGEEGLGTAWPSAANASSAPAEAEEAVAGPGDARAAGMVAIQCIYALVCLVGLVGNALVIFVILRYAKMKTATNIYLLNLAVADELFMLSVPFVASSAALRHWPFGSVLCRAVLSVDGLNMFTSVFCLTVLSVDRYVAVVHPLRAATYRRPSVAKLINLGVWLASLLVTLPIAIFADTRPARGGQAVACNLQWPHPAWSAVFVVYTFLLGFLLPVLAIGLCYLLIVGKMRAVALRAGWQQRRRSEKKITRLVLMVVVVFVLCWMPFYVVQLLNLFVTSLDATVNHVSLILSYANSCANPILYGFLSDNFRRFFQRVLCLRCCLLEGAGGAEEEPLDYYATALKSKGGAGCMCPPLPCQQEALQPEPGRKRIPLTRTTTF

[2] = target: Somatostatin receptor type 3 (Homo sapiens, UniProt P32745)
Somatostatin receptor type 3, sequence (P32745 whole entry): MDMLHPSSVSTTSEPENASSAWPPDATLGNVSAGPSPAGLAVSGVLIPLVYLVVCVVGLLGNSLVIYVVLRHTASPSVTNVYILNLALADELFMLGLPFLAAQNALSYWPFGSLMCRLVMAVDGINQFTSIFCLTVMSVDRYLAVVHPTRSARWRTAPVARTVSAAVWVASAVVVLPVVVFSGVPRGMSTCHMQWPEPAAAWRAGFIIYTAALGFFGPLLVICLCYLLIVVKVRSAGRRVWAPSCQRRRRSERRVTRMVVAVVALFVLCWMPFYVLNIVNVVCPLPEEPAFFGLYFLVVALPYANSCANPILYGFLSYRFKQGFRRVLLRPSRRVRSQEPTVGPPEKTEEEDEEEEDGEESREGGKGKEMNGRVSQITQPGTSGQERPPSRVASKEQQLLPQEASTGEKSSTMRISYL

[3] = target: Somatostatin receptor type 5 (Homo sapiens, UniProt P35346)
Somatostatin receptor type 5, sequence (P35346 whole entry): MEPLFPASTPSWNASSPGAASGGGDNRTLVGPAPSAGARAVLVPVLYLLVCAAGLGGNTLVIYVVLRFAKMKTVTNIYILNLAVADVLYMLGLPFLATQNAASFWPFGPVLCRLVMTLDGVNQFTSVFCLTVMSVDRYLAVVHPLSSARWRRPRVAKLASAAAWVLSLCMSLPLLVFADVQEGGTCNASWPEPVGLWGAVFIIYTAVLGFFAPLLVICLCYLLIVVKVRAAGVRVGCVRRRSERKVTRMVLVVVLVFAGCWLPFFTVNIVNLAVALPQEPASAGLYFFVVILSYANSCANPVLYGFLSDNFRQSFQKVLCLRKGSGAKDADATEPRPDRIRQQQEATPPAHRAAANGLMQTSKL

IC50 [1] | IC50 [2] [nM] | IC50 [3] [nM] | Structure (SMILES)
> 10000 nM | 127 | > 10000 | CCCCC(NC(=O)NC(Cc1ccccc1)C(=O)Nc1ccc([N+](=O)[O-])cc1)C(=O)NC(CCCCN)C(=O)OC (stereo unspecified) [CAS_5311373] ({pNA-Phe-CO}-[Nle]-Lys-OMe; configuration not given here)
> 10000 nM | 6.7 | > 10000 | C[C@@H](O)[C@@H]1NC(=O)[C@H](CCCCN)NC(=O)[C@@H](N(C)C(=O)c2ccc3ccccc3c2)NC(=O)[C@H](Cc2ccc(O)cc2)NC(=O)[C@H](Cc2ccccc2)NC(=O)[C@H](NC(N)=O)CSSC[C@@H](C(=O)O)NC(=O)[C@H](Cc2ccccc2)NC1=O [Carbamoyl-des-AA 1,2,4,5,12,13[D-Cys3,Tyr7, D-Agl8(Me,2-naphthoyl)]-SS(sst3-ODN-8)]
2.5 nM | 6.8 | 13 | CSCC[C@H](NC(=O)[C@H](CCCN=C(N)N)NC(=O)[C@@H](N)CC(=O)O)C(=O)N1CCC[C@H]1C(=O)N[C@H]1CSSC[C@@H](C(=O)N[C@@H](CCCCN)C(=O)O)NC(=O)[C@H](CO)NC(=O)[C@H](CO)NC(=O)[C@H](Cc2ccccc2)NC(=O)[C@H]([C@@H](C)O)NC(=O)[C@H](CCCCN)NC(=O)[C@H](Cc2c[nH]c3ccccc23)NC(=O)[C@H](Cc2ccccc2)NC(=O)[C@H](Cc2ccccc2)NC(=O)[C@H](CC(N)=O)NC(=O)[C@H](CCCN=C(N)N)NC1=O [Cortistatin]
165 nM | – | – | C[C@@H](O)[C@@H]1NC(=O)[C@H](CCCCN)NC(=O)[C@@H](NC(=O)c2ccc3ccccc3c2)NC(=O)[C@H](Cc2ccccc2)NC(=O)[C@H](Cc2ccccc2)NC(=O)[C@@H](N)CSSC[C@@H](C(=O)O)NC(=O)[C@H](Cc2ccccc2)NC1=O [des-AA 1,2,4,5,12,13[D-2Nal8]-SS (ODN-8)]
> 10000 nM and 1000 nM | 39 | > 10000 | C[C@@H](O)[C@@H]1NC(=O)[C@H](CCCCN)NC(=O)[C@@H](N(C)C(=O)c2ccc3ccccc3c2)NC(=O)[C@H](Cc2ccc(O)cc2)NC(=O)[C@H](Cc2ccccc2)NC(=O)[C@H](N)CSSC[C@@H](C(=O)O)NC(=O)[C@H](Cc2ccccc2)NC1=O [des-AA 1,2,4,5,12,13[D-Cys3,Tyr7, D-Agl8(Me,2-naphthoyl)]-SS]

Second part, the compound before the results:

Structure (SMILES) | IC50 [1] | IC50 [2] [nM] | IC50 [3] [nM]
C[C@@H](O)[C@@H]1NC(=O)[C@H](CCCCN)NC(=O)[C@@H](Cc2c[nH]c3ccccc23)NC(=O)[C@H](Cc2ccccc2)NC(=O)[C@H](Cc2ccccc2)NC(=O)[C@@H](N)CSSC[C@@H](C(=O)O)NC(=O)[C@H](Cc2ccccc2)NC1=O [H-c(Cys3-Phe6-Phe7-DTrp8-Lys9-Thr10-Phe11-Cys14)-OH] (H-CFF[dW]KTFC-OH; disulfide 1-8) | 1.3 nM | 13 | 45
C[C@@H](O)[C@@H]1NC(=O)[C@H](CCCCN)NC(=O)[C@@H](N(C)C(=O)c2ccc3ccccc3c2)NC(=O)[C@H](Cc2ccccc2)NC(=O)[C@H](Cc2ccccc2)NC(=O)[C@H](N)CSSC[C@@H](C(=O)O)NC(=O)[C@H](Cc2ccccc2)NC1=O [des-AA 1,2,4,5,12,13[D-Cys3, D-Agl8(Me,2-naphthoyl)]-SS] | > 10000 nM | 115 | –
C[C@@H](O)[C@@H]1NC(=O)[C@H](CCCCN)NC(=O)[C@@H](N(C)C(=O)c2ccc3ccccc3c2)NC(=O)[C@H](Cc2ccccc2)NC(=O)[C@H](Cc2ccccc2)NC(=O)[C@@H](N)CSSC[C@@H](C(=O)O)NC(=O)[C@H](Cc2ccccc2)NC1=O [des-AA 1,2,4,5,12,13[DAgl8(Me,2-naphthoyl)]-SS] | > 10000 nM | 70 | > 10000
